For the assay, the target named is T1, 488-K316E-D391K-R459E-GAC (Mus musculus, UniProt D3Z7P3, D391K/K316E/R459E).
T1 construct: plasmid (residues 72-603 for GAC, 72-674 for KGA); His-tag with thrombin cleavage site (N, cleaved yes); made in house; host or cells: pET23a vector
T1 sequence (D3Z7P3 72-603 isoform D3Z7P3-2 K316E/D391K/R459E): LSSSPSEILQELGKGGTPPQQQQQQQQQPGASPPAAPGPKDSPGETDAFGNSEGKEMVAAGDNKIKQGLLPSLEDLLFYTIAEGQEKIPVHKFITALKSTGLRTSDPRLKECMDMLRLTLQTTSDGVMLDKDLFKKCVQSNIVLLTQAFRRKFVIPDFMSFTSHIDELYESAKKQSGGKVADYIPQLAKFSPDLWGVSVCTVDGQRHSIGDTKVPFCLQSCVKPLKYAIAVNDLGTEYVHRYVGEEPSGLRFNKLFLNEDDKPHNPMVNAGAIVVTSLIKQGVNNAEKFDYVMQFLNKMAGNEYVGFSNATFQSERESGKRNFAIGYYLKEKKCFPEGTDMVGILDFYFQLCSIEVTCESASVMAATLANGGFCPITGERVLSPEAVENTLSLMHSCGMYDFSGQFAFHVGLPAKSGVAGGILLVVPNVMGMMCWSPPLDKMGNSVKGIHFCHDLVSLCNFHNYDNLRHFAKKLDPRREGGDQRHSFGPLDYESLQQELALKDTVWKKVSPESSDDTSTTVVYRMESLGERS
Description: Real-time binding read-out by fluorescence quenching, monomer mutant. Particulars: 20 nM 488-labeled protein, 968 titration. As for the experimental part:
Real-time fluorescence monitoring of 488-GAC fluorescence and NADH fluorescence was performed on a Varian Carry Eclipse Fluorometer, whereas small molecule inhibition and binding titrations were performed in a 96-well format using Grenier non-binding 96-well plates in a Tecan Saphire absorbance and fluorescence plate reader. Samples for monitoring real time binding of 968 to 488-GAC were prepared by adding 10 μL […] (490 nm excitation/520 nm emission). Similarly, this method was replicated for monitoring real time binding of 968 to KGA and mutant forms of GAC, namely 488-D391K-GAC and 488-K316E-D391K-R459E-GAC. Titrations of 968 with mutant forms of GAC were done in triplicate and quantified by the following equation
[formula] where F is the normalized fluorescence at given drug concentration (i.e., F/F0), and Fsat is the normalized fluorescence at saturating concentrations of drug, as shown in FIG. 7A. […] 10 nM WT GAC was added and allowed to equilibrate 2 minutes before beginning to monitor fluorescence of 488-GAC (490 nm excitation, 520 nm emission) and NADH fluorescence (340 nm excitation, 490 nm emission). […] The activity of GAC was indirectly measured by the NADH produced by the added glutamate dehydrogenase, which converts the product of glutaminase activity, glutamate, to α-ketoglutarate and ammonia through reducing NAD^+ to NADH. […]

Molecules are shown by their SMILES.

We go through 1 compound from patent US11046945B2, “Labeled glutaminase proteins, isolated glutaminase protein mutants, methods of use, and kit” (CORNELL UNIVERSITY, priority 2013, dated 2021).

In the case of `CN(C)c1ccc(C2Nc3ccc4ccccc4c3C3=C2C(=O)CC(C)(C)C3)cc1Br` (stereo not shown) [compound 968], the “binding to monomeric GAC (K316E-D391K-R459E) mutant, relative affinity” value is listed as “highest affinity”.
